From US20220073536A1 (Rigel Pharmaceuticals, Inc., priority 2003, published 2022)
Values joined by “and” are separate entries in the source; they are usually repeats but may differ in a detail not shown here. Identical values can stand only once.

Key:
C57BL/6 mice = assay: Mouse cutaneous Reverse Passive Arthus (RPA) reaction, edema; type: in vivo
Source text: Immune complex (IC)-mediated acute inflammatory tissue injury is implicated in a variety of human autoimmune diseases, including vasculitis syndrome, sick serum syndrome, systemic lupus erythematosus (SLE), rheumatoid arthritis, Goodpasture's syndrome, and glomerulonephritis. The classical experimental model for IC-mediated tissue injury is the reverse passive Arthus reaction. The RPA reaction model is a convenient in vivo method to study localized inflammation, induced by ICs, without systemic effects. Intradermal injection of antibodies (Abs) specific to chicken egg albumin (rabbit anti-OVA IgG), followed by intravenous (IV) injection of antigens (Ags), specifically chicken egg albumin (ovalbumin, OVA), causes perivascular deposition of ICs and a rapid inflammatory response characterized by edema, neutrophil infiltration and hemorrhage at the injection sites. Aspects of the mouse RPA reaction model resemble the inflammatory response of patients with rheumatoid arthritis, SLE and glomerulonephritis.
(§1) In this model system, test compounds are administered at several timepoints prior to administration of Abs and Ags. A solution of rabbit anti-OVA IgG ([…] in 25 μl/mouse) is injected intradermally, and immediately following is an intravenous injection of chicken egg albumin (20 mg/kg of body weight) in a solution containing 1% Evans blue dye. The degree of edema and hemorrhage is measured in the dorsal skin of C57BL/6 mice using the Evan's Blue dye as an indicator of local tissue damage. Purified polyclonal rabbit IgG is used as a control.
Pretreatment time, in which the test compounds are administered prior to Ab/Ag challenge, depends on the pharmacokinetic (PK) properties of each individual compound. Four hours after induction of Arthus reaction, mice are euthanized, and tissues are harvested for assessment of edema. This model system allows us to rapidly screen the in vivo activity of many inhibitors.
(§2) All compounds tested were administered by the oral route.

[1] = system: cultured human mast cells (CHMC); assay: CHMC low cell density IgE activation: tryptase assay; type: cell-based; conditions: Homo sapiens, Mast cell, IgE activation
How it was run: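 Tryptase release, fluorogenic substrate, 30 min RT. Prior anti-IgE stimulation of CHMC, 30 min, 37 °C, after 1 hr preincubation at 1000–1500 cells/well in MT; unstimulated wells received MT.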

[2] = system: cultured human mast cells (CHMC); assay: CHMC low cell density ionomycin activation: tryptase assay; type: cell-based; conditions: Homo sapiens, Mast cell, 3 pt, read-out: LD Tryptase, CHMC, Iono, 3 pt
[3] = Plasma concentration in the mouse RPA reaction study; type: in vivo
Protocol: as §1
Pretreatment time, in which the test compounds are administered prior to Ab/Ag challenge, depends on the pharmacokinetic (PK) properties of each individual compound. Four hours after induction of Arthus reaction, mice are euthanized, and tissues are harvested for assessment of edema.
as §2

[4] = 0.1 mg/kg oral, pretreatment time 0.5 hrs
[5] = 0.5 mg/kg oral, pretreatment time 0.5 hrs
[6] = 1 mg/kg oral, pretreatment time 0.5 hrs
[7] = 5 mg/kg oral, pretreatment time 0.5 hrs
[8] = oral, dosage 0.5, pretreatment 5
[9] = oral, printed in dosage position 0.5, in pretreatment position 15
[10] = low cell density, 3 pt, read-out: LD Tryptase, CHMC, IgE, 3 pt
[11] = low cell density, 8 pt, read-out: LD Tryptase, CHMC, IgE, 8 pt

Structure (SMILES): Cc1nc2ccc(Nc3ncc(F)c(Nc4ccc5c(c4)NC(=O)C(C)(C)O5)n3)cc2[nH]1 [Compound 810, N4-(2,2-Dimethyl-3-oxo-4H-benz[1,4]oxazin-6-yl)-5-fluoro-N2-(2-methyl-3H-benzimidazol-5-yl)-2,4-pyrimidinediamine]
- % inhibition to vehicle control Edema Size ± SEM (C57BL/6 mice; [4]): 69.5 ± 19.6%
- % inhibition to vehicle control Edema Size ± SEM (C57BL/6 mice; [5]): 60.9 ± 9.6%
- % inhibition to vehicle control Edema Size ± SEM (C57BL/6 mice; [6]): 81.3% and 81.3 ± 8.4%
- % inhibition to vehicle control Edema Size ± SEM (C57BL/6 mice; [7]): 92.1 ± 3.1%
- IC50 ([1]; low cell density CHMC, tryptase release, 3 pt, read-out: LD Tryptase, CHMC, IgE, 3 pt): < 10 µM
- IC50 ([1]; low cell density CHMC, tryptase release, 8 pt, read-out: LD Tryptase, CHMC, IgE, 8 pt): < 10 µM
- IC50 ([2]; low cell density CHMC, tryptase release): > 10 µM

Structure (SMILES): Cn1c(N2CCOCC2)nc2cc(Nc3ncc(F)c(Nc4ccc5c(c4)NC(=O)C(C)(C)O5)n3)ccc21 [Compound 944, N4-(2,2-Dimethyl-3-oxo-4H-benz[1,4]oxazin-6-yl)-5-fluoro-N2-[1-methyl-2-(4-morpholino)benzimidazol-5-yl]-2,4-pyrimidinediamine]
- Exposure = Pretreatment Time + 4 hours Plasma Concentration ± SEM [3, 8]: 3.4 ± 9.1 ng/mL
- Satellite: At time of challenge Plasma Concentration ± SEM [3, 8]: 22.1 ± 52.4 ng/mL
- Exposure = Pretreatment Time + 4 hours Plasma Concentration ± SEM [3, 9]: 85.1 ± 161.9 ng/mL
- Satellite: At time of challenge Plasma Concentration ± SEM [3, 9]: 1074.0 ± 492.3 ng/mL
- % inhibition to vehicle control Edema Size ± SEM (C57BL/6 mice; 2 mg/kg oral, pretreatment time 1 hr): 39.3 ± 13.8%
- % inhibition to vehicle control Edema Size ± SEM (C57BL/6 mice; 5 mg/kg oral, pretreatment time 1 hr): 48.4 ± 12.0%
- % inhibition to vehicle control Edema Size ± SEM (C57BL/6 mice; 15 mg/kg oral, pretreatment time 1 hr): 56.1 ± 9.2%
- % inhibition to vehicle control Edema Size ± SEM (C57BL/6 mice; [8]): −16.0 ± 17.3%
- % inhibition to vehicle control Edema Size ± SEM (C57BL/6 mice; [9]): 8.3 ± 13.4%
- IC50 [1, 10]: < 10 µM
- IC50 [1, 11]: < 10 µM

Structure (SMILES): COc1c(C)cc(Nc2ncc(F)c(Nc3ccc4c(c3)NC(=O)C(C)(C)O4)n2)cc1Cl.Cc1ccc(S(=O)(=O)O)cc1 [Compound 994, N2-(3-Chloro-4-methoxy-5-methylphenyl)-N4-(2,2-dimethyl-3-oxo-4H-benz[1,4]oxazin-6-yl)-5-fluoro-2,4-pyrimidinediamine p-Toluenesulfonic Acid Salt]
- % inhibition to vehicle control Edema Size ± SEM (C57BL/6 mice; 100 mg/kg oral, 90 minutes prior to Ab/Ag challenge (pretreatment cell of table empty), C57BL/6 mice): 75% and 75.0 ± 6.2%
- IC50 ([1]; CHMC, read-out: in vitro Potency (CHMC IgE)): 0.047 µM
- IC50 [1, 10]: < 10 µM
- IC50 [1, 11]: < 10 µM
- IC50 ([2]; low cell density): < 10 µM

Structure (SMILES): COc1cc(Nc2ncc(F)c(Nc3ccc4c(n3)NC(=O)C(C)(C)O4)n2)cc(OC)c1OC [Compound 1007, N4-(2,2-Dimethyl-3-oxo-4H-5-pyrid[1,4]oxazin-6-yl)-5-fluoro-N2-(3,4,5-trimethoxyphenyl)-2,4-pyrimidinediamine]
- Exposure = Pretreatment Time + 4 hours Plasma Concentration ± SEM [3, 4]: BLQ
- Exposure = Pretreatment Time + 4 hours Plasma Concentration ± SEM [3, 5]: BLQ
- % inhibition to vehicle control Edema Size ± SEM (C57BL/6 mice; [4]): 64.3% and 64.3 ± 11.2%
- % inhibition to vehicle control Edema Size ± SEM (C57BL/6 mice; [5]): 78.7% and 78.7 ± 6.3%
- % inhibition to vehicle control Edema Size ± SEM (C57BL/6 mice; [6]): 89.4 ± 2.2% and 98.1 ± 0.8%
- % inhibition to vehicle control Edema Size ± SEM (C57BL/6 mice; 3 mg/kg oral, pretreatment time 0.5 hrs): 86.3 ± 7.9%
- % inhibition to vehicle control Edema Size ± SEM (C57BL/6 mice; [7]): 99.8% and 99.8 ± 0.2%
- % inhibition to vehicle control Edema Size ± SEM (C57BL/6 mice; 10 mg/kg oral, pretreatment time 0.5 hrs): 97.8 ± 1.1%
- % inhibition to vehicle control Edema Size ± SEM (C57BL/6 mice; 30 mg/kg oral, pretreatment time 0.5 hrs): 88.2 ± 5.7%
